Laboratory results reported in patent publication US20050221406A1, “Method, composition and device for treating starch related diseases” (priority 2004, published 2005).
“And” between values parts separate entries of the source, which are not always exact repeats. Identical values can stand only once.

Experiments:
[1] = running at intensity corresponding to blood lactate of 4 mM, sustained approximately 30 minutes; cited from earlier work
[2] = trial (i): 300 mg sodium bicarbonate per kg of body mass, 100 min before exercise; fourteen healthy male volunteers; differs from placebo and no ingestion (P<0.05)
Procedure: A double-blind protocol was used between the (i) and (ii) trials. […] Each condition was repeated so that the volunteers underwent treadmill exercise for six times. 100 minutes before commencing treadmill exercise was allowed after ingesting substances in (i), (ii) and (iii). The volunteers exercised until fatigue. Fourteen of the volunteers completed all the tests.
A double-blind protocol was used between the (i) and (ii) trials. […] Each condition was repeated so that the volunteers underwent treadmill exercise for six times. 100 min before commencing treadmill exercise was allowed after ingesting substances in (i), (ii) and (iii). The volunteers exercised until fatigue.
Results: Fourteen of the volunteers completed all the tests. […] The data were analyzed using a two-way ANOVA with replicates and Tukey tests.

[3] = 100, 150, and 200 mg NaHCO3/kg body weight; 2-minute maximal exercise bout; cited from earlier work
[4] = Wilkes and co-workers, cited from earlier work
[5] = four 1-minute maximal sprints at 125%, fifth interval to exhaustion; ingestion prior to exercise; cited from earlier work
[6] = venous blood; typical time course; cited from earlier work
[7] = Blood glucose readings, Type I diabetic patient (Tables 1 and 2); type: in vivo, human; conditions: Table 1, one week before starting treatment, insulin 30 iu twice a day, daily readings Mon-Sun
Source text: The patient started using the first method of treatment (day and night), then changed to the 3rd method after 2 weeks of treatment, carried n with it continuously.
The patient was on 30 iu of insulin twice a day (60 iu/day) regardless of any reading of their glucose levels. […] After 4 weeks of continuous treatment with P.I.R.T (treatment method number three), their insulin does was reduced to 10 iu in the morning and 20 iu in the evening (30 iu per day).

Row | Compound | effect on time to exhaustion [1] | average time, treadmill exercise until fatigue [2] | effect on power output [3] | decrease in 800 m running time [4] | distance equivalent of the decrease in 800 m running time ([4]; estimated) | increase of exercise duration of the final bout [5] | time of maximal rise in pH bicarbonate ion concentration after ingestion [6] | time pH bicarbonate ion concentration remains elevated after ingestion [6] | Pre tea BG [7]
1 | O=C([O-])O.[Na+] [sodium bicarbonate] | no effect | 4.01 s | no significant increase | ~3 s | approximately 19 m | 42% | about 1.5 hours | at least 2 hours | –
2 | insulin | – | – | – | – | – | – | – | – | 23.1 mM and 26.2 mM and 18.4 mM and 22.2 mM and 19.5 mM and 19.9 mM and 17.4 mM
